Assay results from patent US20230085307A1, “PYRIDAZINONE COMPOUND AND HERBICIDE” (NISSAN CHEMICAL CORPORATION, priority 2019, published 2023).

Assays:
Italian ryegrass = assay: Test Example 5: herbicidal effect by foliage application, plastic box (Table 20, symbol K); type: in vivo, Italian ryegrass (Lolium multiflorum); settings: for herbicidal effect on Italian ryegrass (K): foliage application, 320 g/ha, three weeks after application
How it was run: (§1)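 Foliar spray test: emulsion formulation diluted in water to a set application rate, sprayed onto 14-day-old plants raised in diluvial soil at 25° C to 30° C under glass. Both herbicidal effect and crop effect rated visually three weeks later.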

Chinese sprangletop = assay: Test Example 3: herbicidal effect by foliage application, Wagner pot (Table 18, symbol D); type: in vivo, chinese sprangletop (Leptochloa chinensis); settings: for herbicidal effect on Chinese sprangletop (D): 320 g/ha
How it was run: (§2)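 Plants were sown in alluvial soil held under 0.1–0.5 cm standing water and grown 14 days in a greenhouse at 25–30 °C. An emulsifiable formulation, water-diluted to the set dose, was then sprayed onto the foliage, and effects were scored three weeks later using previously defined criteria.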

lambsquarters = assay: Test Example 5: herbicidal effect by foliage application, plastic box (Table 20, symbol O); type: in vivo, lambsquarters (Chenopodium album); settings: for herbicidal effect on lambsquarters (O): foliage application, 320 g/ha, three weeks after application
How it was run: as §1

redroot pigweed = assay: Test Example 5: herbicidal effect by foliage application, plastic box (Table 20, symbol N); type: in vivo, redroot pigweed (Amaranthus retroflexus); settings: amount of applied herbicide 320 g/ha; foliage application after 14-day growth; evaluated three weeks after application
Excerpt: [Test Example 5] Herbicidal Effect Test by Foliage Application
Sterilized diluvial soil was placed in a plastic box having a length of 21 cm, a width of 13 cm, and a depth of 7 cm. The seeds of each of southern crabgrass, green foxtail, barnyard grass, wild oat, blackgrass, Italian ryegrass, windgrass, velvetleaf, redroot pigweed, lambsquarters, chickweed, false cleavers, persian speedwell, corn, soybean, rice, wheat, beet, and rapeseed were sowed in a spot-like manner and covered with the soil having a thickness of about 1.5 cm. Thereafter, the plants were grown in a greenhouse at 25° C. to 30° C. After 14-day growth of the plants, the emulsion agent of the compound of the present invention prepared according to Formulation Example 2 was diluted with water so as to achieve a predetermined herbicide amount, and the diluted emulsion agent was uniformly applied to a foliage part with a small-sized spray. Three weeks after the herbicide application, the effect of the herbicide on each plant was evaluated according to the criteria of Test Example 1.

barnyard grass [1] = assay: Test Example 5: herbicidal effect by foliage application, plastic box (Table 20, symbol H); type: in vivo, barnyard grass (Echinochloa crus-galli); settings: for herbicidal effect on barnyard grass (H): foliage application, 320 g/ha, three weeks after application
How it was run: as §1

persian speedwell = assay: Test Example 5: herbicidal effect by foliage application, plastic box (Table 20, symbol R); type: in vivo, Persian speedwell (Veronica persica); settings: for herbicidal effect on persian speedwell (R): foliage application, 320 g/ha, three weeks after application
How it was run: as §1

rice flat sedge = assay: Test Example 3: herbicidal effect by foliage application, Wagner pot (Table 18, symbol E); type: in vivo, rice flat sedge (Cyperus iria); settings: for herbicidal effect on rice flat sedge (E): 320 g/ha
How it was run: as §2

southern crabgrass = assay: Test Example 5: herbicidal effect by foliage application, plastic box (Table 20, symbol F); type: in vivo, southern crabgrass (Digitaria ciliaris); settings: for herbicidal effect on southern crabgrass (F): foliage application, 320 g/ha, three weeks after application
How it was run: as §1

blackgrass = assay: Test Example 5: herbicidal effect by foliage application, plastic box (Table 20, symbol J); type: in vivo, blackgrass (Alopecurus myosuroides); settings: for herbicidal effect on blackgrass (J): foliage application, 320 g/ha, three weeks after application
How it was run: as §1

barnyard grass [2] = assay: Test Example 3: herbicidal effect by foliage application, Wagner pot (Table 18, symbol H); type: in vivo, barnyard grass (Echinochloa crus-galli); settings: for herbicidal effect on barnyard grass (H): 320 g/ha
How it was run: as §2

windgrass = assay: Test Example 5: herbicidal effect by foliage application, plastic box (Table 20, symbol L); type: in vivo, windgrass (Apera spica-venti); settings: for herbicidal effect on windgrass (L): foliage application, 320 g/ha, three weeks after application
How it was run: as §1

wild oat = assay: Test Example 5: herbicidal effect by foliage application, plastic box (Table 20, symbol I); type: in vivo, wild oat (Avena fatua); settings: for herbicidal effect on wild oat (I): foliage application, 320 g/ha, three weeks after application
How it was run: as §1

velvetleaf = assay: Test Example 5: herbicidal effect by foliage application, plastic box (Table 20, symbol M); type: in vivo, velvetleaf (Abutilon theophrasti); settings: for herbicidal effect on velvetleaf (M): foliage application, 320 g/ha, three weeks after application
How it was run: as §1

green foxtail = assay: Test Example 5: herbicidal effect by foliage application, plastic box (Table 20, symbol G); type: in vivo, green foxtail (Setaria viridis); settings: for herbicidal effect on green foxtail (G): foliage application, 320 g/ha, three weeks after application
How it was run: as §1

[3] = amount of applied herbicide 320 g/ha, foliage application after 14-day growth, evaluated three weeks after application
[4] = amount of applied herbicide 320 g/ha

SMILES | herbicidal effect on Chinese sprangletop (D) (Chinese sprangletop) | herbicidal effect on rice flat sedge (E) (rice flat sedge) | herbicidal effect on barnyard grass (H) (barnyard grass [2]) | herbicidal effect on Italian ryegrass (K) (Italian ryegrass) | herbicidal effect on lambsquarters (O) (lambsquarters) | herbicidal effect on barnyard grass (H) (barnyard grass [1]) | herbicidal effect on persian speedwell (R) (persian speedwell) | herbicidal effect on southern crabgrass (F) (southern crabgrass) | herbicidal effect on blackgrass (J) (blackgrass) | herbicidal effect on windgrass (L) (windgrass) | herbicidal effect on wild oat (I) (wild oat) | herbicidal effect on velvetleaf (M) (velvetleaf) | herbicidal effect on green foxtail (G) (green foxtail) | other results
COCc1ccccc1-c1sc2c(Cl)cccc2c1-c1c(O)c(C)nn(C)c1=O [4-081] | 0 (Herbicidal rate of 5% or less (almost no effect)) | 0 (Herbicidal rate of 5% or less (almost no effect)) | 3 (Herbicidal rate of 40% or more and less than 70%) | – | – | – | – | – | – | – | – | – | – | Herbicidal effect by foliage application, K: Italian ryegrass (Italian ryegrass; [3]): 0 (Herbicidal rate of 5% or less (almost no effect)); Herbicidal effect by foliage application, O: lambsquarters (lambsquarters; [3]): 1 (Herbicidal rate of 5% or more and less than 20%); Herbicidal effect by foliage application, N: redroot pigweed (redroot pigweed): 1 (Herbicidal rate of 5% or more and less than 20%); Herbicidal effect by foliage application, H: barnyard grass (barnyard grass [1]; [3]): 3 (Herbicidal rate of 40% or more and less than 70%); Herbicidal effect by foliage application, R: persian speedwell (persian speedwell; [3]): 1 (Herbicidal rate of 5% or more and less than 20%); Herbicidal effect by foliage application, F: southern crabgrass (southern crabgrass; [3]): 0 (Herbicidal rate of 5% or less (almost no effect)); Herbicidal effect by foliage application, J: blackgrass (blackgrass; [3]): 0 (Herbicidal rate of 5% or less (almost no effect)); Herbicidal effect by foliage application, L: windgrass (windgrass; [3]): 0 (Herbicidal rate of 5% or less (almost no effect)); Herbicidal effect by foliage application, I: wild oat (wild oat; [3]): 0 (Herbicidal rate of 5% or less (almost no effect)); Herbicidal effect by foliage application, M: velvetleaf (velvetleaf; [3]): 3 (Herbicidal rate of 40% or more and less than 70%); Herbicidal effect by foliage application, G: green foxtail (green foxtail; [3]): 3 (Herbicidal rate of 40% or more and less than 70%)
Cc1cc2sc(-c3ccc(F)cc3)c(-c3c(O)c(C)nn(C)c3=O)c2cc1C [5-088] | 2 (Herbicidal rate of 20% or more and less than 40%) | 2 (Herbicidal rate of 20% or more and less than 40%) | 3 (Herbicidal rate of 40% or more and less than 70%) | 1 (Herbicidal rate of 5% or more and less than 20%) | 0 (Herbicidal rate of 5% or less (almost no effect)) | 0 (Herbicidal rate of 5% or less (almost no effect)) | 4 (Herbicidal rate of 70% or more and less than 90%) | 0 (Herbicidal rate of 5% or less (almost no effect)) | 0 (Herbicidal rate of 5% or less (almost no effect)) | 0 (Herbicidal rate of 5% or less (almost no effect)) | 0 (Herbicidal rate of 5% or less (almost no effect)) | 2 (Herbicidal rate of 20% or more and less than 40%) | 0 (Herbicidal rate of 5% or less (almost no effect)) | –
COc1ccc(-c2sc3cc(C)c(C)cc3c2-c2c(O)c(C)nn(C)c2=O)cc1 [5-092] | 0 (Herbicidal rate of 5% or less (almost no effect)) | 0 (Herbicidal rate of 5% or less (almost no effect)) | 2 (Herbicidal rate of 20% or more and less than 40%) | 0 (Herbicidal rate of 5% or less (almost no effect)) | 0 (Herbicidal rate of 5% or less (almost no effect)) | 0 (Herbicidal rate of 5% or less (almost no effect)) | 4 (Herbicidal rate of 70% or more and less than 90%) | 0 (Herbicidal rate of 5% or less (almost no effect)) | 0 (Herbicidal rate of 5% or less (almost no effect)) | 0 (Herbicidal rate of 5% or less (almost no effect)) | 0 (Herbicidal rate of 5% or less (almost no effect)) | 0 (Herbicidal rate of 5% or less (almost no effect)) | 0 (Herbicidal rate of 5% or less (almost no effect)) | –
COc1ccccc1-c1sc2c(F)cc(F)cc2c1-c1c(O)c(C)nn(C)c1=O [6-001] | 2 (Herbicidal rate of 20% or more and less than 40%) | 4 (Herbicidal rate of 70% or more and less than 90%) | 3 (Herbicidal rate of 40% or more and less than 70%) | 0 (Herbicidal rate of 5% or less (almost no effect)) | 3 (Herbicidal rate of 40% or more and less than 70%) | 3 (Herbicidal rate of 40% or more and less than 70%) | 0 (Herbicidal rate of 5% or less (almost no effect)) | 0 (Herbicidal rate of 5% or less (almost no effect)) | 0 (Herbicidal rate of 5% or less (almost no effect)) | 0 (Herbicidal rate of 5% or less (almost no effect)) | 0 (Herbicidal rate of 5% or less (almost no effect)) | 4 (Herbicidal rate of 70% or more and less than 90%) | 2 (Herbicidal rate of 20% or more and less than 40%) | –
CCOc1ccccc1-c1oc2ccc(Cl)cc2c1-c1c(O)c(C)nn(C)c1=O [9-003] | – | – | – | 0 (Herbicidal rate of 5% or less (almost no effect)) | 0 (Herbicidal rate of 5% or less (almost no effect)) | 0 (Herbicidal rate of 5% or less (almost no effect)) | 3 (Herbicidal rate of 40% or more and less than 70%) | 0 (Herbicidal rate of 5% or less (almost no effect)) | 0 (Herbicidal rate of 5% or less (almost no effect)) | 0 (Herbicidal rate of 5% or less (almost no effect)) | 0 (Herbicidal rate of 5% or less (almost no effect)) | 3 (Herbicidal rate of 40% or more and less than 70%) | 0 (Herbicidal rate of 5% or less (almost no effect)) | Herbicidal effect on D (Chinese sprangletop), foliage application (Chinese sprangletop; [4]): 0 (Herbicidal rate of 5% or less (almost no effect)); Herbicidal effect on E (rice flat sedge), foliage application (rice flat sedge; [4]): 1 (Herbicidal rate of 5% or more and less than 20%); Herbicidal effect on H (barnyard grass), foliage application (barnyard grass [2]; [4]): 3 (Herbicidal rate of 40% or more and less than 70%)
